Source: US20260240826A1, “COMPOSITIONS FOR PD-L1 INHIBITION AND METHODS OF USE THEREOF” (ARIZONA BOARD OF REGENTS ON BEHALF OF THE UNIVERSITY OF …, priority 2023, published 2026)
“Also recorded” adds a separate entry of the source.

How the values were obtained:
PD-L1 [1] = assay: SSL-induced PD-L1 protein in primary epidermal keratinocytes (HEK), immunoblot; format: cell-based; settings: human primary keratinocytes (HEK cells)
Experimental: (§1) For SSL treatment, UVA-340 bulbs (Q-Lab Corporation) were used. Before exposure, cells were washed with 1×PBS and then incubated in 4 mL PBS (with 0.01% MgCl2 and 0.01% CaCl2) during irradiation. Cells were exposed to 40 kJ/m2 UVA/2.68 kJ/m2 UVB, then rinsed once more with PBS prior to being placed back into DMEM with 1% FBS+penicillin/streptomycin and vehicle or BMS-202 (post-treatment) and incubated until harvest 24 hr later. Control cells underwent identical processing, except were held in the biosafety cabinet without UV exposure.
Adult human epithelial keratinocytes (HEKs) were purchased from Thermo Scientific and maintained in EpiLife media on collagen-coated plates as per the vendor's instructions. Cells were treated with BMS-202 and SSL as described for HaCaT cells.
Cells were lysed in RIPA containing 1×HALT protease+phosphatase inhibitor cocktail (ThermoFisher Scientific) and 100 mM PMSF and protein concentrations were assessed using BCA assay (Bio-Rad). Mouse epidermal protein lysates for immunoblot analysis were derived from scraped frozen SKH-1 skins as described previously (Blohm-Mangone et al., 2018). Twenty μg of protein/lane were loaded onto 10% gels for electrophoresis/immunoblotting using established protocols. […]

[2] = tested on: AP-1 luciferase SKH-1 reporter mice; assay: AP-1 SKH-1 reporter mouse bioluminescence; format: in vivo; settings: topical 8 mM; imaged 24 hr after UVB
Experimental: (§2) UVB exposure was performed on AP-1 luciferase reporter mice on the SKH-1 genetic background at a dose of 2.75 kJ/m2 using FS40 bulbs (Q-Lab Corporation) as described before with the modification that mice were imaged 24 hr post UVB exposure using whole body bioluminescence instead of 48 hr post UVB using ear punches. SSL irradiation of SKH-1 mice (Charles River Laboratories, strain code 477) at a dose of 90 kJ/m2 UVA/6 kJ/m2 UVB was performed using UVA-340 bulbs (Q-Lab Corporation) as described before.
Male transgenic SKH-1 mice heterozygous for the TPA-Response Element (TRE)-driven luciferase transgene (“AP-1 luciferase” mice, n=3) were treated topically on their backs with 200 μL of 8 mM BMS-202 or vehicle control (acetone). For all mice receiving BMS-202, the compound was applied twice before (24 hr and 1 hr) as well as immediately after UV exposure, a dose regimen ensuring efficient target modulation, similar to topical non-sunscreen photoprotection approaches. Mice were injected i.p. with luciferin (potassium salt) stock solution in PBS without magnesium or calcium at a dose of <150 mg/kg of body weight 24 hr after UV exposure and imaged (Lago instrument, Spectral Instruments Imaging) with Aura software analysis.

PD-L1 [3] = assay: PD-L1 immunohistochemistry of SKH-1 mouse skin; format: in vivo; settings: topical 8 mM pre/post; 24 hr post SSL
Experimental: as §2
PD-L1: IHC staining for PD-L1 in mouse skins was performed using the NBP1-43262 antibody (Novus). Epidermal PD-L1 expression is shown as percent staining determined by ImageJ (NIH, open source) quantification using color deconvolution of the brown stain with a uniform threshold between all samples. Each skin sample (n=3, 20× field) was used to measure at least 3 fields per specimen with the exclusion of hair follicles, if present.
Mouse IHC data were analyzed using Kruskal-Wallis non-parametric data analysis (GraphPad Prism 10.0 software). IHC images shown are magnified according to the 100 μm scale bar contained in the respective panel as specified throughout the figure legends.

PD-L1 [4] = assay: SSL-induced PD-L1 expression in HaCaT keratinocytes (mRNA, immunoblot); format: cell-based, human; settings: 24 hr after SSL
Experimental: Human HaCaT immortalized keratinocytes were maintained in DMEM with 10% FBS and 1× penicillin/streptomycin. Cells were authenticated using STR profiling and tested for mycoplasma regularly. Cells were seeded onto […] at a density of ~200 k/dish and grown for 3 days. Prior to treatment, cells were serum starved overnight to enhance the UV responsiveness of signaling. Cells were ~80% confluent at the time of treatment. BMS-202 (10 μM) in DMSO was added to the media 1 hr prior to SSL (pretreatment).
as §1
Cells were lysed in RIPA containing 1×HALT protease+phosphatase inhibitor cocktail (ThermoFisher Scientific) and 100 mM PMSF and protein concentrations were assessed using BCA assay (Bio-Rad). Mouse epidermal protein lysates for immunoblot analysis were derived from scraped frozen SKH-1 skins as described previously (Blohm-Mangone et al., 2018). […]

[5] = tested on: AP-1 luciferase reporter HaCaT cells; assay: AP-1 reporter luciferase assay in HaCaT keratinocytes; format: cell-based, human; settings: harvest 12 hr after UVB
Experimental: HaCaT cells stably transfected with the TRE-driven luciferase plasmid (“AP-1 luciferase” cells) were seeded in 6-well plates, grown to 70% confluence and serum starved overnight to reduce background signaling. Cells were pretreated with BMS-202 or vehicle (DMSO) for 1 hr, then washed twice with PBS prior to exposure to […]. Cells were then washed once more with PBS before being placed into fresh starvation media with vehicle or BMS-202 until harvest 12 hr later. Cells were lysed in Promega's Cell Culture Lysis Buffer (1×), and a total of 10 μg protein per sample replicate was assayed for luciferase activity according to the manufacturer's instructions for the Luciferase Assay System (Promega) using a TD 20/20 luminometer (Turner Designs). Experimental triplicates were averaged and the means from each independent experiment were analyzed by Student's t-test for statistical significance. Results are representative of three independent experiments.

## COc1nc(OCc2cccc(-c3ccccc3)c2C)ccc1CNCCNC(C)=O [BMS-202]
PD-L1 [1]
  SSL-induced PD-L1 protein upregulation (immunoblot): reproducible
[2]
  attenuation in bioluminescent signal intensity (UV-induced AP-1 stress response): ~5 fold
PD-L1 [3]
  epidermal PD-L1 staining (IHC): pronounced inhibition
PD-L1 [4]
  SSL-induced PD-L1 mRNA expression: blocked; also recorded: suppressed dose-dependently
  SSL-induced PD-L1 protein expression (immunoblot): blocked
[5]
  UVB-induced AP-1 luciferase signal intensity: significant inhibition
